Experimental data: PMC6080863 (ACS Catalysis, 2018)
Where a chain is given by its changes, count along the chain named.

What was measured:
[1] = biological target: T1, DERAm (monomeric variant of ecDERA) (Escherichia coli, UniProt P0A6L0, K58E/Y259F/Y96W); experiment: 1H-15N HSQC NMR titration, chemical shift perturbation; type: binding
T1 sequence (P0A6L0 1-259 K58E/Y96W/Y259F): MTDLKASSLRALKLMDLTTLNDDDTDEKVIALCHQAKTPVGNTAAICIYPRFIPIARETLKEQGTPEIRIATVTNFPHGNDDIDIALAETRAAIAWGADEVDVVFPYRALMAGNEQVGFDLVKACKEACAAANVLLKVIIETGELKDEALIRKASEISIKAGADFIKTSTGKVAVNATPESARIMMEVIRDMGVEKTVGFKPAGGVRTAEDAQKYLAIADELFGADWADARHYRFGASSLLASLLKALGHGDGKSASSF

[2] = biological target: T2, DERAm (monomeric variant of ecDERA) (Escherichia coli, UniProt P0A6L0, K58E/Y96W); experiment: as above; type: binding
T2 sequence (P0A6L0 1-259 K58E/Y96W): T1 sequence (P0A6L0 1-259 K58E/Y96W/Y259F) with F259Y

O=P(O)(O)O [potassium phosphate] gave a Kd [1] of 17.9 ± 2.4 mM and a Kd [2] of 18.8 ± 3.6 mM.
